Where a name gives a salt, the structure may show the parent alone.

One data set has as its target T1, PDE10A (human) (Homo sapiens, UniProt Q9Y233).
T1 construct: purchased BPS Bioscience
Nature of the data set: Measurement of PDE activity (HTRF cAMP kit), human PDE10A. The note with it: PDE enzymatic reaction, substrate 20 nM for PDE10, 60 minutes at 29 C. The class given is biochemical. The method in brief: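 Recombinant human PDE10A (10–250 pM range across PDEs) with 20 nM cAMP substrate in 20 mM Tris-HCl pH 7.5, 10 mM MgCl2, 0.1% BSA, compound pre-mixed with enzyme. Ran 60 min at 29 °C. Remaining cAMP read by HTRF, converted to % of uninhibited activity, and IC50 fitted.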

A short description of data set [1]: Determination of the microsomal half-life, human liver microsomes. The note with it: for microsomal CLint at 0.5 μM: human, liver microsomes, pH 7.4. For orientation: Microsomes from liver hold many membrane-bound enzymes, among them those of drug oxidation.
Data set [2] in a line: Determination of the microsomal half-life, rat liver microsomes. The note with it: for microsomal CLint at 0.5 μM: rat, liver microsomes, pH 7.4; for Rat mCl (mikrosomal clearance): rat liver microsomes, 0.5 μM test substance, 0.25 mg microsomal protein, pH 7.4, 37° C., NADPH.

T1 sequence (Q9Y233 whole entry): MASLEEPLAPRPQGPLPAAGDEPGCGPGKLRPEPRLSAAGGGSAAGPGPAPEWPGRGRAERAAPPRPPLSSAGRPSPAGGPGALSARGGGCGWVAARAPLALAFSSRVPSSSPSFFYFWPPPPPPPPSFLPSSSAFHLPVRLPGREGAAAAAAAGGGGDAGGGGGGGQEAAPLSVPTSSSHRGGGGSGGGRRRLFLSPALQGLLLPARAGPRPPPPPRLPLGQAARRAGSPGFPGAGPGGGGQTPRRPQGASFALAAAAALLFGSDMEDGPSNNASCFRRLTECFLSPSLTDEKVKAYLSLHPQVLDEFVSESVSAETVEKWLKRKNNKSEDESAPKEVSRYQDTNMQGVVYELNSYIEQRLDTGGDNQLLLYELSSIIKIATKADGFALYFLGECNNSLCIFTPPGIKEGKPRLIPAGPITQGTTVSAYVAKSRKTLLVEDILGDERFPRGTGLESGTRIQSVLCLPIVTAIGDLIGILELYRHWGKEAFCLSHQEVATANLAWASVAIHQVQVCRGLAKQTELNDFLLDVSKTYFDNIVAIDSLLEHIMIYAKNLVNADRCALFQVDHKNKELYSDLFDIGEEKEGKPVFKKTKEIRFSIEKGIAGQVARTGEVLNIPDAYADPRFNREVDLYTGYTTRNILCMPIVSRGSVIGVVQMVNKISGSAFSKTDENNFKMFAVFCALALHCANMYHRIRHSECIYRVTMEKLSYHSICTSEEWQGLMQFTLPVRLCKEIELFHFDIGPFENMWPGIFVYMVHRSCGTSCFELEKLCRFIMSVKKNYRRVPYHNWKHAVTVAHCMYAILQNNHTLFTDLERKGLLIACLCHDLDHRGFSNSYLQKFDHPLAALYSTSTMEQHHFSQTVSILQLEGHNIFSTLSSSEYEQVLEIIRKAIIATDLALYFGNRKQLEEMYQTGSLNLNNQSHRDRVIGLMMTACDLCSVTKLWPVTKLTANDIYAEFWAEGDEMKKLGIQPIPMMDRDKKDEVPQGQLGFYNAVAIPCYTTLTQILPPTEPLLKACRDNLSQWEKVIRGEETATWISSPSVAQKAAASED

The IC50 is the point on the concentration scale where inhibition reaches its midpoint. Low values mean higher potency, high ones lower potency. What is called microsomal CLint is a measure of how fast metabolising enzymes remove a compound, apart from limits set by blood flow. Lower therefore signals greater metabolic stability. At PDE10A (human), `O=C1c2c(N3CCOCC3)ccnc2CN1CCc1cn2ccccc2n1` [Example 270, 6-(2-Imidazo[1,2-a]pyridin-2-yl-ethyl)-4-morpholin-4-yl-6,7-dihydro-pyrrolo[3,4-b]pyridin-5-one di-trifluoroacetate] returned an IC50 of less than 100 nM. Besides, the microsomal CLint at 0.5 μM in data set [1] and in data set [2] was less than 100 µL/min/mg in each case.
At PDE10A (human), `O=C1c2c(cccc2NC2COC2)CN1CCc1ccc2ccccc2n1` [Example 274, 7-(Oxetan-3-ylamino)-2-(2-quinolin-2-yl-ethyl)-2,3-dihydro-isoindol-1-one] came in with a half-maximal inhibitory concentration (IC50) of less than 100 nM. The intrinsic metabolic clearance (microsomal CLint) at 0.5 μM in data set [1] and in data set [2] was 100 to 220 µL/min/mg in each case.
The compound `O=C1c2c(cc(F)cc2-c2ccncc2)CN1CCc1ccc2ccccc2n1` [Example 15, 5-Fluoro-7-pyridin-4-yl-2-(2-quinolin-2-yl-ethyl)-2,3-dihydro-isoindol-1-one] registered an IC50 against PDE10A (human) of less than 100 nM. Further, the intrinsic metabolic clearance (microsomal CLint) at 0.5 μM was 100 to 220 µL/min/mg in data set [1] and greater than 220 µL/min/mg in data set [2].
The like results for `COc1ccc(-c2ccnc3c2C(=O)N(CCc2nc4ccccc4s2)C3)cc1` [compound 541, 6-[2-(1,3-Benzothiazol-2-yl)ethyl]-4-(4-methoxyphenyl)-7H-pyrrolo[3,4-b]pyridin-5-one trifluoroacetate] were, in that order, 100 to 200 nM, less than 100 µL/min/mg and 100 to 220 µL/min/mg.
The compound `COc1ccc(-c2cncnc2)c2c1CN(CCc1ccc3ccccc3n1)C2=O` [Example 183, 4-Methoxy-7-pyrimidin-5-yl-2-(2-quinolin-2-yl-ethyl)-2,3-dihydro-isoindol-1-one] had an IC50 on PDE10A (human) of less than 100 nM. The microsomal CLint at 0.5 μM in data set [1] and in data set [2] was 100 to 220 µL/min/mg in each case.
The compound `O=C1c2c(-c3cn[nH]c3)ccc(F)c2CN1CCc1cn2ccccc2n1` [Example 383, 4-Fluoro-2-(2-imidazo[1,2-a]pyridin-2-yl-ethyl)-7-(1H-pyrazol-4-yl)-2,3-dihydro-isoindol-1-one] showed an IC50 against PDE10A (human) of less than 100 nM. The microsomal CLint at 0.5 μM in data set [1] and in data set [2] was less than 100 µL/min/mg in each case.
The compound `COc1ccc(N2CCOCC2)c2c1CN(CCc1nc3ccccc3n1C)C2=O` [Example 371, 4-Methoxy-2-[2-(1-methyl-1H-benzoimidazol-2-yl)-ethyl]-7-morpholin-4-yl-2,3-dihydro-isoindol-1-one] came in with an IC50 on PDE10A (human) of less than 100 nM. In addition, the results for the microsomal CLint at 0.5 μM in data set [1] and in data set [2] were greater than 220 µL/min/mg and less than 100 µL/min/mg, respectively.
As for `Cn1c(CCN2Cc3cccc(N4CCOCC4)c3C2=O)nc2cc(F)ccc21` [Example 262, 2-[2-(5-Fluoro-1-methyl-1H-benzoimidazol-2-yl)-ethyl]-7-morpholin-4-yl-2,3-dihydro-isoindol-1-one], on PDE10A (human), the IC50 was less than 100 nM. Also, the figures for the microsomal CLint at 0.5 μM in data set [1] and in data set [2] were 100 to 220 µL/min/mg and less than 100 µL/min/mg, respectively.
In turn, `O=C1c2c(N3CCC4(COC4)C3)ccnc2CN1CCc1nc2ccccc2s1` [compound 424, 6-[2-(1,3-Benzothiazol-2-yl)ethyl]-4-(2-oxa-7-azaspiro[3.4]octan-7-yl)-7H-pyrrolo[3,4-b]pyridin-5-one] gave an IC50 at PDE10A (human) of less than 100 nM. Further, the microsomal CLint at 0.5 μM in data set [1] and in data set [2] was less than 100 µL/min/mg each time.
Consider `O=C1c2c(cccc2-c2cncnc2)CN1CCc1nc2ccccc2[nH]1` [Example 312, 2-[2-(1H-Benzoimidazol-2-yl)-ethyl]-7-pyrimidin-5-yl-2,3-dihydro-isoindol-1-one trifluoroacetate], for which the IC50 against PDE10A (human) is less than 100 nM. The microsomal CLint at 0.5 μM in data set [1] and in data set [2] was less than 100 µL/min/mg throughout.
As for `COc1ccc(N2CCN(C3CCN(C)CC3)CC2)c2c1CN(CCc1ccc3ccccc3n1)C2=O` [Example 269, 4-Methoxy-7-[4-(1-methyl-piperidin-4-yl)-piperazin-1-yl]-2-(2-quinolin-2-yl-ethyl)-2,3-dihydro-isoindol-1-one di-trifluoroacetate], the microsomal CLint at 0.5 μM in data set [1] and in data set [2] was less than 100 µL/min/mg throughout.
As to `O=C1c2cccc(-c3ccncc3)c2C(=O)N1CCc1ccc2ccccc2n1` [Example 249, 4-Pyridin-4-yl-2-(2-quinolin-2-yl-ethyl)-isoindole-1,3-dione dihydrochloride], the figures for the intrinsic clearance (microsomal CLint) at 0.5 μM in data set [1] and in data set [2] were 100 to 220 µL/min/mg and greater than 220 µL/min/mg, respectively.
For the compound `CN1CCN(Cc2ccc(-c3cccc4c3C(=O)N(CCc3ccc5ccccc5n3)C4)cc2)CC1` [Example 167, 7-[4-(4-Methyl-piperazin-1-ylmethyl)-phenyl]-2-(2-quinolin-2-yl-ethyl)-2,3-dihydro-isoindol-1-one trifluoroacetate], the microsomal CLint at 0.5 μM in data set [1] is greater than 220 µL/min/mg; in data set [2], 100 to 220 µL/min/mg.
For `COc1ccc(NC2COC2)c2c1CN(CCc1cn3ccccc3n1)C2=O` [Example 362, 2-(2-Imidazo[1,2-a]pyridin-2-yl-ethyl)-4-methoxy-7-(oxetan-3-ylamino)-2,3-dihydro-isoindol-1-one], in that order: less than 100 µL/min/mg and less than 100 µL/min/mg.
Consider `O=C1c2c(cccc2N2C[C@H]3CCCNC[C@H]3C2)CN1CCc1ccc2ccccc2n1` [Example 318, 7-(3aS,8aS)-Octahydro-pyrrolo[3,4-c]azepin-2-yl-2-(2-quinolin-2-yl-ethyl)-2,3-dihydro-isoindol-1-one trifluoroacetate], for which the microsomal CLint at 0.5 μM is 100 to 220 µL/min/mg in data set [1] and greater than 220 µL/min/mg in data set [2].
For `Cc1nc(CCN2Cc3nccc(-c4ccncc4)c3C2=O)sc1C` [compound 408, 6-[2-(4,5-Dimethylthiazol-2-yl)ethyl]-4-(4-pyridyl)-7H-pyrrolo[3,4-b]pyridin-5-one], the microsomal CLint at 0.5 μM was less than 100 µL/min/mg in data set [1] and 100 to 220 µL/min/mg in data set [2].
For `CC1CCN(c2cccc3c2C(=O)N(CCc2ccc4ccccc4n2)C3)CC1N` (stereo not shown) [Example 174, 7-(3-Amino-4-methyl-piperidin-1-yl)-2-(2-quinolin-2-yl-ethyl)-2,3-dihydro-isoindol-1-one], in that order: less than 100 µL/min/mg and 100 to 220 µL/min/mg.
Take `O=C1c2c(NC3COC3)ccnc2CN1CCc1cn2ccccc2n1` [Example 360, 6-(2-Imidazo[1,2-a]pyridin-2-yl-ethyl)-4-(oxetan-3-ylamino)-6,7-dihydro-pyrrolo[3,4-b]pyridin-5-one]: the microsomal CLint at 0.5 μM in data set [1] and in data set [2] was less than 100 µL/min/mg in each case.
As for `Cc1ccc(COc2cccc3c2C(=O)N(CCc2ccc4ccccc4n2)C3)cn1` [Example 172, 7-(6-Methyl-pyridin-3-ylmethoxy)-2-(2-quinolin-2-yl-ethyl)-2,3-dihydro-isoindol-1-one], the microsomal CLint at 0.5 μM in data set [1] and in data set [2] was 100 to 220 µL/min/mg throughout.
For `CC1(O)CCC(Nc2ccc(-c3cccc4c3C(=O)N(CCc3ccc5ccccc5n3)C4)cc2Cl)CC1` (stereo not shown) [Example 155, 7-[3-Chloro-4-(4-hydroxy-4-methyl-cyclohexylamino)-phenyl]-2-(2-quinolin-2-yl-ethyl)-2,3-dihydro-isoindol-1-one hydrochloride], the microsomal CLint at 0.5 μM in data set [1] was greater than 220 µL/min/mg; in data set [2], 100 to 220 µL/min/mg.
`O=C1c2c(cccc2-c2ccncc2)CN1CCc1ccnc(-c2ccccc2)n1` [Example 122, (2-(2-Phenylpyrimidin-4-yl)ethyl)-7-(pyridin-4-yl)isoindolin-1-one]: the “Human mCl (mikrosomal clearance)” value in data set [1] (human liver microsomes, 0.5 μM test substance, 0.25 mg microsomal protein, pH 7.4, 37° C., NADPH) is on record as “++ (++: 100 μl min^−1 mg^−1)”. Also, the “Rat mCl (mikrosomal clearance)” value in data set [2] was “+ (+: 100-220 μl min^−1 mg^−1)”.
On to `C=C(C)c1ccc(Oc2ccc(-c3cccc4c3C(=O)N(CCc3ccc5ccccc5n3)C4)cc2)cc1` [Example 146, 7-[4-(4-Isopropenyl-phenoxy)-phenyl]-2-(2-quinolin-2-yl-ethyl)-2,3-dihydro-isoindol-1-one], for which the microsomal CLint at 0.5 μM in data set [1] is greater than 220 µL/min/mg; in data set [2], 100 to 220 µL/min/mg.
For `O=C1c2c(cccc2N2CCOCC2)CN1CCc1nc2ccccn2n1` [Example 231, 7-Morpholin-4-yl-2-(2-[1,2,4]triazolo[1,5-a]pyridin-2-yl-ethyl)-2,3-dihydro-isoindol-1-one], in that order: less than 100 µL/min/mg and less than 100 µL/min/mg.
Take `CN1CC2CN(c3cccc4c3C(=O)N(CCc3ccc5ccccc5n3)C4)CC2C1` (stereo not shown) [Example 154, 7-(5-Methyl-hexahydro-pyrrolo[3,4-c]pyrrol-2-yl)-2-(2-quinolin-2-yl-ethyl)-2,3-dihydro-isoindol-1-one]: the microsomal CLint at 0.5 μM in data set [1] is less than 100 µL/min/mg. The “Rat mCl (mikrosomal clearance)” value in data set [2] is “−∘”.
Regarding `CN1CCN(c2cccc3c2CN(CCc2ccc4ccccc4n2)C3=O)CC1` [Example 144, 4-(4-Methyl-piperazin-1-yl)-2-(2-quinolin-2-yl-ethyl)-2,3-dihydro-isoindol-1-one], the microsomal CLint at 0.5 μM is less than 100 µL/min/mg in data set [1] and 100 to 220 µL/min/mg in data set [2].
Regarding `COCC1CN(c2cccc3c2C(=O)N(CCc2ccc4ccccc4n2)C3)CCO1` (stereo not shown) [Example 298, 7-(2-Methoxymethyl-morpholin-4-yl)-2-(2-quinolin-2-yl-ethyl)-2,3-dihydro-isoindol-1-one], the microsomal CLint at 0.5 μM in data set [1] and in data set [2] was 100 to 220 µL/min/mg each time.
For `CN1CCN(c2ccnc3c2C(=O)N(CCc2cn4ccccc4n2)C3)CC1` [Example 273, 6-(2-Imidazo[1,2-a]pyridin-2-yl-ethyl)-4-(4-methyl-piperazin-1-yl)-6,7-dihydro-pyrrolo[3,4-b]pyridin-5-one], the microsomal CLint at 0.5 μM in data set [1] and in data set [2] was less than 100 µL/min/mg each time.
